# In ChEMBL document CHEMBL1201862, “PubChem BioAssay data set” (2004):
# Activity calls are given as the source filed them.
# How the values were obtained:
# [1] = target: T1, Ubiquitin-conjugating enzyme E2 N (Homo sapiens, UniProt P61088); format: functional
# T1 sequence (P61088 whole entry): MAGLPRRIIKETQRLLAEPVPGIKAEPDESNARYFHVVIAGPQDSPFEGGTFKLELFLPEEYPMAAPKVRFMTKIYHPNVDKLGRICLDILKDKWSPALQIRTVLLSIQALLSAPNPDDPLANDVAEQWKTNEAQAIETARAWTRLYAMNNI
# [2] = target: T2, DNA repair protein RAD52 homolog (Homo sapiens, UniProt P43351); format: functional, biochemical
# T2 sequence (P43351 whole entry): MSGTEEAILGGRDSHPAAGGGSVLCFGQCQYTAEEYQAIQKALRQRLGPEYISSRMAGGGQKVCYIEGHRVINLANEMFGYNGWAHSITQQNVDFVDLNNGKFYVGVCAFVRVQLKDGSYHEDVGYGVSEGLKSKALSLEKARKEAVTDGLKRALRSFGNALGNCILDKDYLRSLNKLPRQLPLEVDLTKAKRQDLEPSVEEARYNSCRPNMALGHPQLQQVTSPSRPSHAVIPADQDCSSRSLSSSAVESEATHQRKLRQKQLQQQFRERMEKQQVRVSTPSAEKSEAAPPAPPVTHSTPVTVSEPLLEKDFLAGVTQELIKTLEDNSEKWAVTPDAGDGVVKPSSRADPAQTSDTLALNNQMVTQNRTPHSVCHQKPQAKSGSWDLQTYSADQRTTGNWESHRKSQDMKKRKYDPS
# [3] = system: Escherichia coli; assay: microbe, parasite or virus in culture
# [4] = system: Streptococcus; assay: GAS UMAA2166 growth inhibition – luminescence, BacTiterGlo, counter-screen for streptokinase expression inhibitor project, dose response (AID 1915); format: functional, organism-based;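 further: potency for reduction of bacterial viability or growth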
# [5] = target: T3, Rac GTPase-activating protein 1 (Homo sapiens, UniProt Q9H0H5); assay: blockers of MgcRacGAP-driven Rac1 GTP hydrolysis – biochemical, ADP Hunter fluorescence, primary and confirmatory, confirmation (AID 624330); format: functional
# T3 sequence (Q9H0H5 whole entry): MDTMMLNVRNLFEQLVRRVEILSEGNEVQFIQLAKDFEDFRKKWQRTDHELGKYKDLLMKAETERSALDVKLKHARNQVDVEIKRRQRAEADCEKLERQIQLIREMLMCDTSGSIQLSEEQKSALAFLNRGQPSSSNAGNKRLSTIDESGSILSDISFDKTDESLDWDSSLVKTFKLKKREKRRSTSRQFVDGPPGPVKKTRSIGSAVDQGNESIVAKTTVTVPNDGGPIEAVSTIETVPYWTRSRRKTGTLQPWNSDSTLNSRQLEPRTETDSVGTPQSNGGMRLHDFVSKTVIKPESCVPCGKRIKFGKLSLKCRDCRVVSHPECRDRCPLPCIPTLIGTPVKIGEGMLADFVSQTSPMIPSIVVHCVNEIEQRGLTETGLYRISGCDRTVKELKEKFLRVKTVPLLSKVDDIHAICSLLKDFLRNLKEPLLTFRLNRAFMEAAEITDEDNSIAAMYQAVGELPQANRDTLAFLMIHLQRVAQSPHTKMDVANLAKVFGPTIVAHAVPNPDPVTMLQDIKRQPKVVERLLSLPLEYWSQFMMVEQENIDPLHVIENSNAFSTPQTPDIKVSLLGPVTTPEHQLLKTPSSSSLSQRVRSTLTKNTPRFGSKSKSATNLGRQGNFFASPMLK
# [6] = target: T4, Endoribonuclease toxin MazF (Escherichia coli K-12, UniProt P0AE70); assay: substrate-only fluorescence increase artefacts – biochemical, single-stranded RNase substrate, counter-screen for MazEF activator project, dose response (AID 588502); format: functional
# T4 sequence (P0AE70 whole entry): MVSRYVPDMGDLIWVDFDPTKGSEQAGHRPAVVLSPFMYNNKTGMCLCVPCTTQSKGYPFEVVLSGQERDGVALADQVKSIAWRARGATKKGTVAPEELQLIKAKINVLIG
# [7] = target: T1, Ubiquitin-conjugating enzyme E2 N; format: functional; remark: listed apart in the source
# [8] = target: T5, Streptokinase A (Streptococcus pyogenes serotype M1, UniProt P10520); assay: viability-normalized secreted streptokinase activity reduction – plasminogen activation absorbance, OD405, dose response (AID 1914); format: functional, Streptococcus pyogenes M1 GAS;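 further: secreted streptokinase activity via plasminogen activation per viability signal from cell pellet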
# T5 sequence (P10520 whole entry): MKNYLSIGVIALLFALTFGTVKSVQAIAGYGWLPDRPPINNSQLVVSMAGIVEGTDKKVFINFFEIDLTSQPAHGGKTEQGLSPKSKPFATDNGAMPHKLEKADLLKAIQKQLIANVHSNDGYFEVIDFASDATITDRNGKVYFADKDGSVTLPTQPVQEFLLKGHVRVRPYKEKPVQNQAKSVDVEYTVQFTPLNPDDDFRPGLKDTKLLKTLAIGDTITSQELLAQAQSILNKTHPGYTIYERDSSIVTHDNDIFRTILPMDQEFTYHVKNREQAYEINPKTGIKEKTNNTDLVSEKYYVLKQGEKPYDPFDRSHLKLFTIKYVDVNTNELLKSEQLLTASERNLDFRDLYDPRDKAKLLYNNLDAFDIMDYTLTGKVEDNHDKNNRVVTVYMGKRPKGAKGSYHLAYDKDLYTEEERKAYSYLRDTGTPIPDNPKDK
# [9] = NIH-3T3 fibroblast cytotoxicity, dose response, cytotoxicity control, cell-based, fluorescence, Alamar Blue, secondary assay (AID 2327); format: functional;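 further: NIH-3T3 mouse fibroblasts cultured with fluconazole at 8 µg/mL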
# [10] = target: T6, Bcl-2-related protein A1 (Mus musculus, UniProt Q07440); format: functional;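 further: confirmatory dose–response counterscreen on Bfl-1, used to check hits from a UBC13 polyubiquitin inhibitor campaign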
# T6 sequence (Q07440 whole entry): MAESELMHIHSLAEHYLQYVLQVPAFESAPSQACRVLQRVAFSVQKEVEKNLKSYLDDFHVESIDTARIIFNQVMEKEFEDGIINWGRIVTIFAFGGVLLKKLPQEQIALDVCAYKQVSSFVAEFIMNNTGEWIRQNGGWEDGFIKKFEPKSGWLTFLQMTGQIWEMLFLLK
# [11] = target: T7, CAAX prenyl protease 2 (Homo sapiens, UniProt Q9Y256); assay: inhibition of Ras-converting CAAX protease Rce1 – biochemical, yeast membranes, quenched-peptide fluorescence, cherry-pick, dose response (AID 588849)
# T7 sequence (Q9Y256 whole entry): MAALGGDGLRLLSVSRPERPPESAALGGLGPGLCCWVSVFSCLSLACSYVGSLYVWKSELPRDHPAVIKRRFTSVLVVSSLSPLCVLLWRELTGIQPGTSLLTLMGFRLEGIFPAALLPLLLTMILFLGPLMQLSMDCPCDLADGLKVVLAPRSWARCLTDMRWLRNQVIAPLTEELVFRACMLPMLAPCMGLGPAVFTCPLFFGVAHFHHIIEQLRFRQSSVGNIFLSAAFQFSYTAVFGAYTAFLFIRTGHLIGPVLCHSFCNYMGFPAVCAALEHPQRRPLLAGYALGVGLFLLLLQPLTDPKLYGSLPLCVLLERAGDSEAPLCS
# [12] = Cytotoxicity screening for potential Inhibitors of Bacterial Capsule Biogenesis. [Related pubchem assays (depositor defined):AID488970]; format: functional
# [13] = A cytotoxicity screen of small molecule inhibitors of the PhoP region in Salmonella typhi identified in the primary screen. [Related pubchem assays: 1850, 1864, 1985 ]; format: functional
# [14] = system: Streptococcus sp. 'group A'; assay: Streptococcus pyogenes SK(-)GAS viability under kanamycin – luminescence, BacTiterGlo, confirmation, counter-screen for streptokinase expression inhibitor project, dose response (AID 1900); format: functional, organism-based
# [15] = target: Trypsin (Sus scrofa, UniProt P00761); assay: trypsin protease activity blockade – biochemical, quenched peptide fluorescence, cherry-pick, selectivity assay for Rce1 protease inhibitor project, dose response (AID 488789)
# Trypsin, sequence (P00761 whole entry): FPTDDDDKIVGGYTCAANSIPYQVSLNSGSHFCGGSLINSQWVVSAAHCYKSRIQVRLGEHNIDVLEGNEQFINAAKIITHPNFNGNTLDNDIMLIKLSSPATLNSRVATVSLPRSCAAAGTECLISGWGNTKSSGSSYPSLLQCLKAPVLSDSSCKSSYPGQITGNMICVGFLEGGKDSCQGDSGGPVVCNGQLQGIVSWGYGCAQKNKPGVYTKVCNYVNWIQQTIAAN
# [16] = target: T4, Endoribonuclease toxin MazF; assay: activation of MazEF endoribonuclease cleavage – biochemical, fluorescence, single-stranded RNA substrate, uHTS hits, dose response (AID 588481); format: functional
# [17] = fluconazole-exposed Candida albicans growth modulators – fluorescence, retest, confirmation (AID 2467); format: functional, cell-based
# [18] = reduction of Shn3 3'UTR-driven luciferase in osteoblasts – cell-based, Clone20 osteoblasts, firefly luciferase, cherry-picked, dose response (AID 624132); format: functional;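 further: firefly luciferase luminescence from reporter carrying the Shn3 3'UTR in osteoblasts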
# [19] = loss of viability in HepG2 cells – cell-based, CellTiter-Glo, cherry-picked, cytotoxicity control for Shn3 inhibitor project, dose response (AID 624134); format: functional
# [20] = target: Neurotensin receptor type 1 (Homo sapiens, UniProt P30989); format: functional;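 further: Image-based confirmatory dose-response assay measuring agonist activity at NTR1; NTR1-expressing U2OS osteosarcoma cells imaged for beta-arrestin GFP spot formation; agonist potency where compounds increase beta-arrestin recruitment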
# Neurotensin receptor type 1, sequence (P30989 whole entry): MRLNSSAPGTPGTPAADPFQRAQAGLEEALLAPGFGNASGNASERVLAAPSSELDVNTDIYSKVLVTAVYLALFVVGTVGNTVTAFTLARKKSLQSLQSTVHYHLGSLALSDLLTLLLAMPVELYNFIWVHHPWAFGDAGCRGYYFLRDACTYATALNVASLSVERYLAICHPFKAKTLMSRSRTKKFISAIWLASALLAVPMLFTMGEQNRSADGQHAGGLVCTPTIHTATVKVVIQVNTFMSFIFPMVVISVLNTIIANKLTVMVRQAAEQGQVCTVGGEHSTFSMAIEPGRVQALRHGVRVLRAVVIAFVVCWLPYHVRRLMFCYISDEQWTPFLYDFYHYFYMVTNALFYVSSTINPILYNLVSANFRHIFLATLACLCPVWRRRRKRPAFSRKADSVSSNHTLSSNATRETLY
# [21] = target: T8, Heat shock factor protein 1 (Mus musculus, UniProt P38532); assay: decrease of HSF1-responsive luciferase luminescence – cell-based, NIH3T3, dose retest, confirmation (AID 2382); format: functional;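 further: NIH3T3 fibroblasts with HSF1-driven luciferase reporter stressed by proteasome inhibitor MG132; luminescence from HSF1-driven luciferase expression after 8 hours of MG132 stress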
# T8 sequence (P38532 whole entry): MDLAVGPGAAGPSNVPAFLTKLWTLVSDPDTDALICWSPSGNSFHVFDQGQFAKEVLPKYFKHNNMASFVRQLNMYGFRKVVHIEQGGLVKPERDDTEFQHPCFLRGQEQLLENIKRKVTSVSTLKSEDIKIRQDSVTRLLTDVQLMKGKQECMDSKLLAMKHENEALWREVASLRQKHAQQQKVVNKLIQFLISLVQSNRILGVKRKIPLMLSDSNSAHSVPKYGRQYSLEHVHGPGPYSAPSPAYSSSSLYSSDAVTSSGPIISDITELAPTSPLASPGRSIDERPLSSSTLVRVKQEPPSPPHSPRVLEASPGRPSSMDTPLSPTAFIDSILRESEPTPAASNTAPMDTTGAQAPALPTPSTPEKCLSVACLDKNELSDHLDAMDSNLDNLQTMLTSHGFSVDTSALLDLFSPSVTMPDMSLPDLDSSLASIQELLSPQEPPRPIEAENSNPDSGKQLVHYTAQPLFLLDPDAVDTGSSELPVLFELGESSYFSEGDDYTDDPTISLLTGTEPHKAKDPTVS
# [22] = target: T9, Sphingosine 1-phosphate receptor 4 (Homo sapiens, UniProt O95977); assay: Fluorescence dose response cell-based high throughput screening assay for antagonists of the Sphingosine 1-Phosphate Receptor 4 (S1P4). [Related pubchem assays: 1524 (Confirmation in triplicates.), 1510 (Primary screen.)]; format: functional
# T9 sequence (O95977 whole entry): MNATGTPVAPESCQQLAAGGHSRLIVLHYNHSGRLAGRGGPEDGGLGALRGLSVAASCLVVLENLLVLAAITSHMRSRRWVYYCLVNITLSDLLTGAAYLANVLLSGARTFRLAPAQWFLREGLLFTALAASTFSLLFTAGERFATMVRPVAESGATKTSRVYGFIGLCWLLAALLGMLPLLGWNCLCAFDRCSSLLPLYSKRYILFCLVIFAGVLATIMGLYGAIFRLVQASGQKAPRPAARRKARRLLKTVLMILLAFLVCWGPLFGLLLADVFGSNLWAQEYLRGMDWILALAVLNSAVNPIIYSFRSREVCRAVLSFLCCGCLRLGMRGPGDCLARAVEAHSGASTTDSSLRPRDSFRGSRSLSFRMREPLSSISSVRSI
# [23] = viability of PTEN-deleted HCT116 cells – cell-based, HCT116 PTEN knockout, dose response (AID 1047); format: functional;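 further: HCT116 colon tumor cells with PTEN knocked out; cells exposed to compound for 60 hours before readout; potency for loss of cell viability measured by luminescence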
# [24] = non-specific 3'UTR reporter inhibition in Clone20-Shn3RL – cell-based, Renilla luciferase, cherry-picked, counter-screen for Shn3 inhibitor project, dose response (AID 624133); format: functional
# [25] = target: T10, Microphthalmia-associated transcription factor (Homo sapiens, UniProt O75030); assay: reducers of TRPM1 reporter luminescence, concentration series – cell-based, SK-MEL-5, cherry-picked, set 3, MITF inhibitor project, dose response (AID 493073); format: functional;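 further: SK-MEL-5 melanoma cells with luciferase driven by the MITF target TRPM1 promoter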
# T10 sequence (O75030 whole entry): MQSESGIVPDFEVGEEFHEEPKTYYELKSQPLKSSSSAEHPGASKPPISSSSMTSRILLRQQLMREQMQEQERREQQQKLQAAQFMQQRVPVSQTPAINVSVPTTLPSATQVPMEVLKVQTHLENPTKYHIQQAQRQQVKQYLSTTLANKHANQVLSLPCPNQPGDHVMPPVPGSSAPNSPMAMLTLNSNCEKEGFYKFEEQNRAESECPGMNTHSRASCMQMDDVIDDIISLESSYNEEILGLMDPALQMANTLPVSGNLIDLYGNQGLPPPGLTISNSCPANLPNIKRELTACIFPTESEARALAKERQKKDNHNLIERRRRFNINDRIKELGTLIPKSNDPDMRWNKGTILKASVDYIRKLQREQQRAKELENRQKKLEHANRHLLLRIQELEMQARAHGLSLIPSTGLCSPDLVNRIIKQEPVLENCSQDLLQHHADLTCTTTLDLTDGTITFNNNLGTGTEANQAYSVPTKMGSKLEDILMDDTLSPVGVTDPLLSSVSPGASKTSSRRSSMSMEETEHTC
# [26] = target: Sphingosine 1-phosphate receptor 1 (Homo sapiens, UniProt P21453); format: functional;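 further: Tango beta-arrestin reporter U2OS cells stimulated with S1P near its EC80; inhibitor potency meaning antagonism of receptor activation by the natural agonist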
# Sphingosine 1-phosphate receptor 1, sequence (P21453 whole entry): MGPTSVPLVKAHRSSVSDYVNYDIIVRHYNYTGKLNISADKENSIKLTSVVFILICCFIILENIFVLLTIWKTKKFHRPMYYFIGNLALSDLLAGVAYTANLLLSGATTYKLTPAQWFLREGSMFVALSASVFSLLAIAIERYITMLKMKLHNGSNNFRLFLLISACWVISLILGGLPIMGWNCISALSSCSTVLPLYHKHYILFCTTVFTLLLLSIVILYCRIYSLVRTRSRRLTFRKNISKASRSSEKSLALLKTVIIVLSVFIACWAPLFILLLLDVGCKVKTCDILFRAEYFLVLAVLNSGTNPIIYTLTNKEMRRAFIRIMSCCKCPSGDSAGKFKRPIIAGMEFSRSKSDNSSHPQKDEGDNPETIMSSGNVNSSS
# [27] = viability of HCT116 lacking mutant beta-catenin – cell-based, human colon tumor, dose response (AID 1045); format: functional;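 further: HCT116 colon tumor cells with beta catenin knocked out; cells exposed to compound for 60 hours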
compound,measurement,setting,value
N=C(N)c1ccc(/C=C/c2ccc(C(=N)N)cc2O)cc1,IC50,[1],3.61 µM (active)
same,AC50,[2],0.708 µM (active)
same,AC50,[3],37.7 µM (active)
same,EC50,[4],> 150 µM (not active)
same,IC50,[5],39 µM (active)
same,EC50,[6],> 99 µM (inactive)
same,IC50,[7],2.8 µM (active)
same,EC50,[8],20 µM (active)
same,EC50,[9],> 150 µM (inactive)
same,IC50,[10],> 20 µM (inactive)
same,AC50,[11],> 100 µM (inactive)
same,CC50,[12],> 100 µM (active)
same,EC50,[13],> 50 µM (active)
same,EC50,[14],1.43 µM (active)
same,AC50,[15],3.15 µM (active)
same,EC50,[16],4.77 µM (active)
same,EC50,[17],0.529 µM (active)
COc1ccc(Oc2cc(NC(=O)c3nn(C)cc3[N+](=O)[O-])cc([N+](=O)[O-])c2)cc1,AC50,[18],0.813 µM (active)
same,AC50,[19],21.1 µM (active)
same,EC50,[20],8.91 µM (active)
same,EC50,[21],8.9 µM (inconclusive)
same,IC50,[22],1.08 µM (active)
same,EC50,[23],0.219 µM (active)
same,AC50,[24],5.01 µM (active)
same,AC50,[25],8.94 µM (active)
same,IC50,[26],17.4 µM (not active)
same,EC50,[27],0.17 µM (active)
